Activity calls are given as the source filed them. For most assays here, no stated cut-off is given here; in the data, actives have a measured IC50 and inactives only a lower limit.

These results are taken from ChEMBL document CHEMBL1201862, “PubChem BioAssay data set” (2004).

Test [1] has as its target T1, Tyrosine-protein phosphatase non-receptor type 22 (Homo sapiens, UniProt Q9Y2R2).
T1 sequence (Q9Y2R2 whole entry): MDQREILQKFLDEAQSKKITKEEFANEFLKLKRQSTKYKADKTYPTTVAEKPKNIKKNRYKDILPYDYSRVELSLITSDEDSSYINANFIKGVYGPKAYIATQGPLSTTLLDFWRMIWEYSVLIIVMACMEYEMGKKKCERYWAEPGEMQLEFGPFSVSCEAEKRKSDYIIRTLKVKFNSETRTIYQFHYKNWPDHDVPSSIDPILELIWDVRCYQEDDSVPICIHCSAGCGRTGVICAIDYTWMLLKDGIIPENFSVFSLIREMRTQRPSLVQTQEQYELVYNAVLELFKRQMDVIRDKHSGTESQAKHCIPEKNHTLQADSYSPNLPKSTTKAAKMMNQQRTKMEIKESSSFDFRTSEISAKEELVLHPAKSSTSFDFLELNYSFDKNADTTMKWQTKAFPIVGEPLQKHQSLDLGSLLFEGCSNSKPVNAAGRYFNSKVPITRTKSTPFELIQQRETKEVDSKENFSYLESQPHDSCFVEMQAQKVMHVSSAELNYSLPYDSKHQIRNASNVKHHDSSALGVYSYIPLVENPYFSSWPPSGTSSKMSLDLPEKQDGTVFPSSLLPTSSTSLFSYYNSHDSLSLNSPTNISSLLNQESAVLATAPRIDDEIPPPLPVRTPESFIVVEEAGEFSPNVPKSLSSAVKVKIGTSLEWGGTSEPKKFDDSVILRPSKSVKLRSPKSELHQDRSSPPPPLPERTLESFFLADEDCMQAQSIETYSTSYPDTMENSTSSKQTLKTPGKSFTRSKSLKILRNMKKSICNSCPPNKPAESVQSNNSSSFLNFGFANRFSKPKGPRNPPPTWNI
In words: LYP1 Fluorescent Assay using OMFP substrate for In Vitro dose response studies. [Related pubchem assays (depositor defined):AID1779, AID1784, AID435024].

In test [2] the target is T2, Tyrosine-protein phosphatase non-receptor type 12 (Homo sapiens, UniProt Q05209).
T2 sequence (Q05209 whole entry): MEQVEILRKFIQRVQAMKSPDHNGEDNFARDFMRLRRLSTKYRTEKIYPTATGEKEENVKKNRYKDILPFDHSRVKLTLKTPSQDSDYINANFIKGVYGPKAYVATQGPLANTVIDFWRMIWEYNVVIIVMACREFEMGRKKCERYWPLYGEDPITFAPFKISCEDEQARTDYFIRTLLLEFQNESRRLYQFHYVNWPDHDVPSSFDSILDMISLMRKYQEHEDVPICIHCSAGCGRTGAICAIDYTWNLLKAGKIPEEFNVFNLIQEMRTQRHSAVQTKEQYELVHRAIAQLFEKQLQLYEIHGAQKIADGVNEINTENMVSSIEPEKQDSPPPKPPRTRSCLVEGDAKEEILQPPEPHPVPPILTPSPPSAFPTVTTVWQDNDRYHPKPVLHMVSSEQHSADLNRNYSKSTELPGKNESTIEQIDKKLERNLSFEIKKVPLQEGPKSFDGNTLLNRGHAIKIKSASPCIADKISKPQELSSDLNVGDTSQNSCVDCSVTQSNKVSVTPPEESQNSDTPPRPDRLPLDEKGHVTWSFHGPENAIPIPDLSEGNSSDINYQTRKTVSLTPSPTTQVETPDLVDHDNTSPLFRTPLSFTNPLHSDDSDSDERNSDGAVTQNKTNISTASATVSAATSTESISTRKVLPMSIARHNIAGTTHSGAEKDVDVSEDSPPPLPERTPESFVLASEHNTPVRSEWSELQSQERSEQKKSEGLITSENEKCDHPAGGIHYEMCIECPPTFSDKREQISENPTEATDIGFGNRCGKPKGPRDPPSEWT
In words: SAR Selectivity Analysis of small molecule inhibitors of PEST using pCAP in a fluorescence assay. [Related pubchem assays (depositor defined):AID1779, AID1784, AID2135]. The format is functional.

For test [3], the target named is T1, Tyrosine-protein phosphatase non-receptor type 22. Put plainly: SAR LYP1 Fluorescent Assay using OMFP substrate for In Vitro dose response studies - Set 2. [Related pubchem assays (depositor defined):AID1779, AID1784, AID2140, AID449726, AID488869]. The format is functional.
A short description of test [4]: cytotoxicity in KRAS-transformed pancreatic duct cells, primary screen, cell-based, fluorescence, HTS (AID 431).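 Further: cell line used: HPDE-C7K.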 Format: functional. The conditions noted are these: Homo sapiens.
The target of test [5] is T3, Apoptotic protease-activating factor 1 (Homo sapiens, UniProt O14727).
T3 sequence (O14727 whole entry): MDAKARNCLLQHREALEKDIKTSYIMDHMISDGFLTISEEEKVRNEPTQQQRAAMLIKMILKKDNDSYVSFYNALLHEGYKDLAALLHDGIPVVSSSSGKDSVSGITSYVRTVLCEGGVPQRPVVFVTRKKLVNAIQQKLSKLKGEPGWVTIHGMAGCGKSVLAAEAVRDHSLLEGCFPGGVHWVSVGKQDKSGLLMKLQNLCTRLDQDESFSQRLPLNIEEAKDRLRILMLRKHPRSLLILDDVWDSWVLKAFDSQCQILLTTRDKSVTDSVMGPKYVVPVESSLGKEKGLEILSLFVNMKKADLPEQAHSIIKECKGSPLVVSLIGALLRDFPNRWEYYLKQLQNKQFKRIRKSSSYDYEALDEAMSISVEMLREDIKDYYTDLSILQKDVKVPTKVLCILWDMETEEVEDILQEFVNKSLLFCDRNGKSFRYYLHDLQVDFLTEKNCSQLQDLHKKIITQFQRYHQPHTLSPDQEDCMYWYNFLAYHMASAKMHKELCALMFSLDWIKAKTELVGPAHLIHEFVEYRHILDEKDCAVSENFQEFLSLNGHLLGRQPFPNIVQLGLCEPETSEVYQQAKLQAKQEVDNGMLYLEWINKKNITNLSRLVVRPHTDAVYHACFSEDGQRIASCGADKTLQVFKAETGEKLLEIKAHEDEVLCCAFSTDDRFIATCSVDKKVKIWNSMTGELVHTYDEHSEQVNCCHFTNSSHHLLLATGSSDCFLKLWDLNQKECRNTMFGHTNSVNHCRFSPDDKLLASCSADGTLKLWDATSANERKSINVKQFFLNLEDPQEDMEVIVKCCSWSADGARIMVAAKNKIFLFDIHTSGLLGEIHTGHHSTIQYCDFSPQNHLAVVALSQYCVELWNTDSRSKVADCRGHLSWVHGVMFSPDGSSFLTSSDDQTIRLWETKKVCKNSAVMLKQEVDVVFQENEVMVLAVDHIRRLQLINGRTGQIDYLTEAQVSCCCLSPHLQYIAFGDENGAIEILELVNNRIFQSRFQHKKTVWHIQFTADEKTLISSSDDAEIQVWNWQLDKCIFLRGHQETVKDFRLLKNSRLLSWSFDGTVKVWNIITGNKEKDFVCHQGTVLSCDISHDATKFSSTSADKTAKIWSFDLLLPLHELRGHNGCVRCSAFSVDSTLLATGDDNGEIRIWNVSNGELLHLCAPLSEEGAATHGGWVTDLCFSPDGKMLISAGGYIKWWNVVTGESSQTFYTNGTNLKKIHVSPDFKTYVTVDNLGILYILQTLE
Format: functional.

Usually IC50 stands for the concentration needed to halve the response being measured. As for `COc1ccc(/C=C2\SC(=S)N(CCC(=O)Nc3ccc(C(=O)O)cc3)C2=O)cc1OC`, the IC50 is 4.66 µM (active) in test [1], 1.13 µM (active) in test [2] and 1.08 µM (active) in test [3].

In general, EC50 refers to the concentration that produces a half-maximal response. `COc1ccc(Nc2ccc3c(c2)=NC2(CCCCC2)[N+]=3[O-])cc1`: in test [4], the EC50 was 8.16 µM (active). Moreover, the IC50 in test [5] is 12.2 µM (active).
